Calls of active or inactive are those of the source.
Legend:
Staphylococcus aureus = assay: Antimicrobial activity against Staphylococcus aureus ATCC 6538 at 1 uM; format: functional, organism-based
Escherichia coli = assay: Antimicrobial activity against Escherichia coli ATCC 8739 at 1 uM; format: functional, organism-based
Candida tropicalis = assay: Antimicrobial activity against Candida tropicalis IP 209.73 at 1 uM; format: functional, organism-based
KB = assay: Cytotoxicity against human KB cells at 0.1 uM; format: functional, cell-based

Measured: Activity

COC(=O)C1=C(c2c(/C(=C\c3ccc(O)cc3)C(=O)OC)[nH]c3ccccc23)C(=O)c2[nH]c3ccccc3c21
inactive: Staphylococcus aureus | Escherichia coli | Candida tropicalis | KB Not toxic

COC(c1ccc(O)cc1)C1(OC)C(=O)/C(=C2/C(=O)C(OC)(C(OC)c3ccc(O)cc3)c3[nH]c4ccccc4c32)c2c1[nH]c1ccccc21 (configuration not stated)
inactive: Staphylococcus aureus | Escherichia coli | Candida tropicalis | KB Not toxic

COC(c1ccc(O)cc1)C1(OC)C(=O)/C(=C2/C(=O)/C(=C/c3ccc(O)cc3)c3[nH]c4ccccc4c32)c2c1[nH]c1ccccc21 (configuration not stated)
inactive: Staphylococcus aureus | Escherichia coli | Candida tropicalis | KB Not toxic

— ChEMBL document CHEMBL1151183, “New pigments from the terrestrial cyanobacterium Scytonema sp. collected on the Mitaraka inselberg, French Guyana” (J Nat Prod, 2004)
